Measured values as given in patent US20120172228A1, “ALCOHOL ALKOXYLATES AS ADJUVANTS FOR AGROCHEMICAL FORMULATIONS” (SYNGENTA CROP PROTECTION, LLC, priority 2009, published 2012).

Experiments:
Assay type in all cases: in vivo
[1] = test system: lolium perenne (LOLPE); experiment: Adjuvant with herbicide pinoxaden on LOLPE; settings: 14 and 21 days
Procedure: In this example the response of the butylene oxide adjuvant 13 of Table 1 was measured at an application rate of 0.2% of the volume of the spray solution used. It was compared to the adjuvant tris 2-ethylhexyl phosphate [TEHP], which was applied at the higher rate of 0.5% by volume. The herbicide pinoxaden was applied at rates of 7.5, 11.25 or 15 grams per hectare by a laboratory track sprayer to the weed species lolium perenne (LOLPE), alopecurius myosuirides (ALOMY), and avena fatua (AVEFA). In each case the experiments were replicated four times and the percentage damage to the weeds was assessed visually at time periods of 14 and 21 days after application.

[2] = test system: avena fatua (AVEFA); experiment: Adjuvant with herbicide pinoxaden on AVEFA; settings: 14 and 21 days
Procedure: (§1) In this example Sample 13 from Table 1 was compared to the oil adjuvant blend Turbocharge™. The herbicide fomesafen was applied to the weed species xanthium strumarium (XANST), setaria viridis (SETVI), abutilon theophrasti (ABUTH), and chenopodium album (CHEAL) at rates of 60 or 120 grams per hectare, using a laboratory track sprayer. Each experiment was replicated four times and the percentage damage to the weeds was assessed visually at time periods of 7, 14 and 21 days after application. Each adjuvant was applied at a rate of 0.5% of the volume of the spray water. Four effects were evaluated: pesticide rate (2 levels), adjuvant type (two levels), weed species (four levels) and days after application (three levels). […] The effect of each adjuvant was pulled out from the model and the least significant differences evaluated using a Student's t method. […]
(§2) In this example the responses of the adjuvants 13, 17, 19, 21, 22 and 23 were measured at an application rate of 0.2% of the volume of the spray solution used. […] In each case the experiments were replicated four times and the percentage damage to the weeds was assessed visually at time periods of 14 and 21 days after application.
(§3) In this example the response of butylene oxide sample 27 of Table 1 was measured at an application rate of 0.2% of the volume of the spray solution used. […]

[3] = test system: alopecurius myosuirides (ALOMY); experiment: Adjuvant with herbicide pinoxaden on ALOMY; settings: 14 and 21 days
Procedure: as §1, §2, §3

[4] = test system: chenopodium album (CHEAL), digitaria sanguinalis (DIGSA), setaria viridis (SETVI), abutilon theophrasti (ABUTH); experiment: Adjuvant with herbicide nicosulfuron, track sprayer, mean across four weed species
Procedure: as §1, with “levels). A standard simple linear model was constructed to judge the significance of these effects.” for “levels).”
(§4) In this example the butylene oxide adjuvant Sample 13 of Table 1 was compared to the commercial oil adjuvant blend Atplus™411F. […] Each experiment was replicated four times and the percentage damage to the weeds was assessed visually at time periods of 14 and 21 days after application. […]
In this example the rate response of the butylene oxide adjuvant Sample 13 of Table 1 was measured and compared to the adjuvant TEHP. […]

[5] = test system: chenopodium album (CHEAL); experiment: Adjuvant with herbicide nicosulfuron on CHEAL; settings: nicosulfuron 30 or 60 g/ha; adjuvants 0.2% of spray water; 14 and 21 days after application
Procedure: as §1, §4
(§5) In this example the responses of the butylene oxide adjuvants 13, 17, 19, 21, 22 and 23 of Table 1 were measured at an application rate of 0.2% of the volume of the spray solution used. […]

[6] = test system: digitaria sanguinalis (DIGSA); experiment: Adjuvant with herbicide nicosulfuron on DIGSA; settings: nicosulfuron 30 or 60 g/ha; adjuvants 0.2% of spray water; 14 and 21 days after application
Procedure: as §1, §4, §5

[7] = pinoxaden 7.5, 11.25 or 15 g/ha, Sample 13 0.2%, TEHP 0.5%
[8] = pinoxaden 7.5 or 15 g/ha, butylene oxide adjuvants 0.2%, TEHP 0.5% v/v

Structure (SMILES): CCCCC(CC)COP(=O)(OCC(CC)CCCC)OCC(CC)CCCC (stereo not shown) [TEHP, tris 2-ethylhexyl phosphate]
- mean efficacy (percentage damage to the weeds), LOLPE [1, 7]: 58.06; A %
- mean efficacy (percentage damage to the weeds), LOLPE [1, 8]: 82.5; A %
- mean efficacy (percentage damage to the weeds), AVEFA [2, 7]: 78.33; A %
- mean efficacy (percentage damage to the weeds), AVEFA [2, 8]: 73.75; AB %
- mean efficacy (percentage damage to the weeds), ALOMY [3, 7]: 43.33; A %
- mean efficacy (percentage damage to the weeds), ALOMY [3, 8]: 68.75; AB %
- mean efficacy (percentage damage to the weeds), All weeds ([4]; nicosulfuron 30 or 60 g/ha, adjuvants 0.2% of spray water, 14 and 21 days after application): 58.12; B %
- Mean % kill ([4]; nicosulfuron 30 to 60 g/ha, adjuvant rate 0.2% w/v, across four weed species, 14 and 21 days): 58.12%
- mean efficacy (percentage damage to the weeds), CHEAL [5]: 68.33; B %
- mean efficacy (percentage damage to the weeds), DIGSA [6]: 69.17; A %
